For 11 compounds, Ki, Activity and half-life results are on record in ChEMBL document CHEMBL1138958, “Opioid receptor binding and antinociceptive activity of the analogues of endomorphin-2 and morphiceptin with phenylalanine mimics in the position 3 or 4” (Bioorg Med Chem Lett, 2006).

One may read the Ki as the dissociation constant of the complex between target and ligand, obtained from inhibition or displacement. Usually half-life stands for how long it takes for the measured level to halve.

The structures appear in SMILES notation. Where a SMILES comes first, the peptide text is derived from it. [ ]: non-standard residue; d: D form. hPhe = N[C@@H](CCc1ccccc1)C(=O)O

Data set [1] deals with Delta-type opioid receptor (Rattus norvegicus, UniProt P33533). Description: Displacement of [3H]DPDPE from delta opioid receptor in Wistar rat brain. Background: Displacement assays read how much labelled ligand stays bound in the presence of the test substance.
For another data set, the target named is Mu-type opioid receptor (Rattus norvegicus, UniProt P33535). Description: Displacement of [3H]DAMGO from mu opioid receptor in Wistar rat brain.
In data set [2] the test system is Mus musculus. The experiment in a line: Antinociceptive activity in mouse at 4ul, icv by hot plate test assessed as area under %MPE - time curve after 30 mins. It counts as functional. (In general: In hot-plate and tail-flick tests a longer latency is read as antinociception.)
For data set [3], the system named is Mus musculus. Description: Antinociceptive activity in mouse at 4ul, icv by hot plate test assessed as area under %MPE - time curve after 45 mins. It is filed as functional.
For data set [4], the system named is Mus musculus. The experiment in a line: Antinociceptive activity in mouse at 4 ul, icv by hot plate test assessed as area under %MPE - time curve after 15 mins. It is filed as functional.
Data set [5] is described as follows: Half life in mouse brain at 10 ul. It is filed as ADME, organism-based.
The target of data set [6] is Mu-type opioid receptor (Rattus norvegicus) (UniProt P33535). The experiment in a line: Decrease of maximum binding of [3H]DAMGO to mu opioid receptor in Wistar rat brain at 10000 nm. The arrangement: scale not given: the % may be the effect or the level left.
Chain of Mu-type opioid receptor (Rattus norvegicus) (P33535 whole entry): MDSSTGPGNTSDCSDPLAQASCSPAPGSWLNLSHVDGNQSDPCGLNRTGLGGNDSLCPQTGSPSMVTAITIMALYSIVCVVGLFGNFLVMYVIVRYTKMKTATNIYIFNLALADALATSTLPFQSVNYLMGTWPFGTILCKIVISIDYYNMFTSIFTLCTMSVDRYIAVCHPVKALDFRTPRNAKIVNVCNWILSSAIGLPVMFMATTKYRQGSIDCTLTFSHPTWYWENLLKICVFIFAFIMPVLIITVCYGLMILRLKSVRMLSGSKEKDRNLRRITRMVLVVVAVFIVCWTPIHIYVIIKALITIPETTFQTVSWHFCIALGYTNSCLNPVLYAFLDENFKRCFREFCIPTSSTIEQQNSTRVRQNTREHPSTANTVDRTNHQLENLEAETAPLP

Chain of Mu-type opioid receptor (P33535 whole entry): as above
Chain of Delta-type opioid receptor (P33533 whole entry): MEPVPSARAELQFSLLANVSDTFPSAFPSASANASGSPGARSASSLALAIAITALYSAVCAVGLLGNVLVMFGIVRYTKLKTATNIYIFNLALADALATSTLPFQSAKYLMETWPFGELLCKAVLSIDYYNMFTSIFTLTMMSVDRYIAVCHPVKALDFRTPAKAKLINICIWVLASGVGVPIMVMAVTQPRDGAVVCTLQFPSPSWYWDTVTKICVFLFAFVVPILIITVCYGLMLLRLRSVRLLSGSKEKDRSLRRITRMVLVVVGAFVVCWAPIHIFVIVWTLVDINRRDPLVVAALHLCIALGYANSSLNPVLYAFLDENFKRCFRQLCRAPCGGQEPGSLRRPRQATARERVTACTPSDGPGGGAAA

For the compound `NC(=O)[C@H](Cc1ccccc1)NC(=O)[C@H](NC(=O)[C@@H]1CCCN1C(=O)[C@@H](N)Cc1ccc(O)cc1)c1ccccc1`, the results for the Ki (in data set [1]; on Mu-type opioid receptor) were 2100 nM and 1350 nM, respectively.

On to `NC(=O)[C@H](Cc1ccccc1)NC(=O)[C@H](CCc1ccccc1)NC(=O)[C@@H]1CCCN1C(=O)[C@@H](N)Cc1ccc(O)cc1`, for which the Activity is recorded as 50% with Mus musculus [2], 38.2% in the data set on Mus musculus [3] and 67.5% with Mus musculus [4]. The Ki in data set [1] is > 10000 nM; at Mu-type opioid receptor, 28.4 nM. Also, the half-life in data set [5] amounted to 32.5 min.

`NC(=O)[C@@H]1CCCN1C(=O)[C@H](NC(=O)[C@@H]1CCCN1C(=O)[C@@H](N)Cc1ccc(O)cc1)c1ccccc1`: the Ki in data set [1] was > 10000 nM. Further, the Activity in data set [6] is 24.5%.

`NC(=O)[C@@H]1CCCN1C(=O)[C@H](Cc1ccccc1)NC(=O)[C@@H]1CCCN1C(=O)[C@@H](N)Cc1ccc(O)cc1` [MORPHICEPTIN] (H-YPFP-NH2): the figures for the Ki (in data set [1]; at Mu-type opioid receptor) were > 10000 nM and 135 nM, respectively.

On to `NC(=O)[C@@H](NC(=O)[C@H](Cc1ccccc1)NC(=O)[C@@H]1CCCN1C(=O)[C@@H](N)Cc1ccc(O)cc1)c1ccccc1`, for which the values for the Activity in the data set on Mus musculus [2], in the data set with Mus musculus [3] and in the data set on Mus musculus [4] were 42.2%, 35.5% and 54.2%, respectively. Moreover, the inhibition constant Ki in data set [1] is > 10000 nM; on Mu-type opioid receptor, 26.9 nM. Moreover, the half-life in data set [5] turned out to be 24.1 min.

Turning to `NC(=O)[C@H](CCc1ccccc1)NC(=O)[C@H](Cc1ccccc1)NC(=O)[C@@H]1CCCN1C(=O)[C@@H](N)Cc1ccc(O)cc1`, the Ki was > 10000 nM in data set [1] and 74.5 nM at Mu-type opioid receptor.

Take `NC(=O)[C@@H]1CCCN1C(=O)[C@@H](NC(=O)[C@@H]1CCCN1C(=O)[C@@H](N)Cc1ccc(O)cc1)c1ccccc1`: the Ki in data set [1] is > 10000 nM.

For `NC(=O)[C@@H]1CCCN1C(=O)[C@H](CCc1ccccc1)NC(=O)[C@@H]1CCCN1C(=O)[C@@H](N)Cc1ccc(O)cc1` (H-YP[hPhe]P-NH2), the Ki is > 10000 nM in data set [1] and 586 nM at Mu-type opioid receptor.

Take `NC(=O)[C@H](Cc1ccccc1)NC(=O)[C@@H](NC(=O)[C@@H]1CCCN1C(=O)[C@@H](N)Cc1ccc(O)cc1)c1ccccc1`: the inhibitory constant (Ki) in data set [1] was > 10000 nM; on Mu-type opioid receptor, 268 nM.

`NC(=O)[C@H](Cc1ccccc1)NC(=O)[C@H](Cc1ccccc1)NC(=O)[C@@H]1CCCN1C(=O)[C@@H](N)Cc1ccc(O)cc1` [ENDOMORPHIN 2]: the Activity in the data set on Mus musculus [2] is listed as 34.8%; in the data set with Mus musculus [4] it was 40.1%. For the same compound, the half-life in data set [5] worked out at 19.7 min.

In the case of `NC(=O)[C@H](NC(=O)[C@H](Cc1ccccc1)NC(=O)[C@@H]1CCCN1C(=O)[C@@H](N)Cc1ccc(O)cc1)c1ccccc1`, the values for the Ki (in data set [1]; on Mu-type opioid receptor) were > 10000 nM and 216 nM, respectively.
